Here are results for one molecule from patent US11155586B2, “Cystine knot scaffold platform” (Genentech, Inc., priority 2015, dated 2021).

Positions of bridges follow the written chain, without caps; N, C: chain ends. Residues, ends and D or L forms follow the SMILES beside them.

The target in one experiment is T1, hVEGF(8-109) (Homo sapiens, UniProt P15692).
T1 construct: hVEGF(8-109) or BSA were coated on 384-well MAXISORP™ immunoplates
T1 sequence (P15692 214-315): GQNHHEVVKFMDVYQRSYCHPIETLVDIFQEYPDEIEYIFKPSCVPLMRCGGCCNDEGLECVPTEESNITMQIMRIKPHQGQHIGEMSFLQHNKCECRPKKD
Briefly: Spot phage ELISA. The experiment is classed as binding. As to conditions: Table 27. An outline of the steps: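 After four selection rounds, phage supernatants from single clones (1:3 in PBT) were added to wells coated with hVEGF(8-109) or BSA; binding detected with anti-M13-HRP and TMB. Positive clones had target signal more than 3 times BSA background.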
In general terms: ELISA stands for enzyme-linked immunosorbent assay.

For another experiment, the target named is T2, hVEGF-A (8-109) (Homo sapiens, UniProt P15692).
T2 sequence (P15692 34-135 isoform P15692-4): T1 sequence (P15692 214-315)
Briefly: SPR binding assay (BIACORE 3000, 37° C.). The note with it: hVEGF-A (8-109), Table 29. The protocol: Depending on the format of the assay either a streptavidin sensor (SA) or a dextran-coated (CM5) sensor was utilized as described below.
For use with the SA sensor, VEGF-A was first biotinylated (no more than 2 biotin/VEGF-A) by incubating the protein with EZ-link NHS-PEG4-Biotin (Pierce) in a 1:1.5 molar ratio respectively, in PBS for 2 hours on ice. Reaction was then quenched by addition of 10 molar excess of Glycine pH 8.0 and the sample was buffer exchanged into PBS using an Amicon 0.5 mL 3000 MWCO ultra-centrifugal filters (EMD Millipore). The biotinylation state of the protein was verified by LC-MS analysis. Biotinylated VEGF-A was then captured on the surface until a resonance unit (RU) signal of about ˜400. For immobilization of VEGF-A on CM5 sensor, the surface was first activated with a mixture of N-ethyl-N′-(3-dimethylaminopropyl)carbodiimide hydrochloride and N-hydroxysuccinimide (EDC/NHS) according to the supplier instructions. VEGF-A was then diluted into coupling buffer (0.1 M Acetate Buffer, pH 5.0) and injected until the signal reached about ˜400 RU followed by a wash with 1 M ethanolamine pH 8.0 to quench remaining activated sites.
Following the capture step, a series of the peptide concentrations were prepared in HBS-EP buffer with matching DMSO concentrations to 0.1% and injected at a flow rate of […]. The resulting sensorgrams were then analyzed using a 1:1 binding model to obtain kinetic data and affinities using Scrubber 2.0 (BioLogic Software).

As for `CSCC[C@@H]1NC(=O)[C@H](CCC(=O)O)NC(=O)[C@@H]2CSSC[C@H](NC(=O)[C@H](CC(=O)O)NC(=O)[C@H](Cc3ccccc3)NC(=O)[C@H](CC(=O)O)NC1=O)C(=O)N[C@@H](CC(C)C)C(=O)N[C@@H](C)C(=O)NCC(=O)N[C@H](C(=O)N[C@H](C(=O)N[C@H]1CSSC[C@@H](C(=O)NCC(=O)O)NC(=O)[C@H](CO)NC(=O)[C@H](CC(N)=O)NC(=O)[C@H](Cc3ccc(O)cc3)NC(=O)[C@H](Cc3c[nH]c4ccccc34)NC(=O)[C@H](Cc3c[nH]cn3)NC1=O)C(C)C)CSSC[C@H](NC(=O)CN)C(=O)N[C@@H](CC(=O)O)C(=O)N[C@@H](C(C)C)C(=O)N[C@@H](CCSC)C(=O)N[C@@H](CCC(N)=O)C(=O)N1CCC[C@H]1C(=O)N[C@@H](Cc1ccc(O)cc1)C(=O)N[C@@H](Cc1c[nH]c3ccccc13)C(=O)NCC(=O)N2` [VEGF_CKP9.63.44] (H-GCDVMQPYWGCEMDFDCLAGCVCHWYNSCG-OH; disulfide 2-21, 11-17, 23-29 (inferred); N-terminus and C-terminus assumed), the “S/N (signal to noise ratio as compared to BSA control)” value on hVEGF(8-109) was 19.5. For the same molecule, at hVEGF(8-109) (loop 2 variants based on VEGF_CKP9.63 framework), the ELISA was 1.7. This molecule showed a kd on hVEGF-A (8-109) of 0.11.
